Measurements reported in publication PMC8901748, “A novel prostaglandin E receptor 4 (EP4) small molecule antagonist induces articular cartilage regeneration” (Cell Discovery, 2022).

How the values were obtained:
[1] = test system: Col2a1, Acan, Mmp3, Mmp9, Mmp13 expression in primary mouse chondrocytes; assay: qRT-PCR of anabolic and catabolic factors in primary chondrocytes; format: cell-based
Description: ATDC5 cell line was purchased from Riken BioResource Center (Tsukuba, Japan) and grown in a 1:1 mixture of DMEM/F12 medium (Corning, 10-092-CVR) supplemented with 5% fetal bovine serum (Gibco, 10099, USA) and 1% penicillin-streptomycin solution (Life Technologies). Cells were maintained at 37 °C under 5% CO2. Primary chondrocytes were obtained from knee joint cartilage of newborn mice. Knee joints were dissected from the tibia plateau and femoral condyle articular cartilage of mouse pups and digested in 0.1% collagenase type II (Sigma) overnight at 37 °C and chondrocytes were harvested by centrifugation. Primary chondrocytes were cultured at a density of 5 × 10^3 cells per ml at 37 °C with 5% CO2. DMEM/F12 medium with 10% fetal bovine serum (FBS) and 1% penicillin–streptomycin was used to culture the primary chondrocytes. Chondrogenic differentiation were induced with chondrogenic medium, which contains insulin-transferrin-selenium (ITS) (Sigma, I3146), 10 ng/ml TGF-β3 (PEPROTECH, 100-36E, USA), 100 nM Dexamethasone (Sigma, D4902), 50 μg/ml VC (Sigma), 1 mM sodium pyruvate (Sigma) and 40 μg/ml proline (Sigma), and/or treatment with rmIL-1β (R&D, 401-ML/CF), TNFα (PEPROTECH, 300-01A-50) in DMEM/F12 for indicated days. Western blotting was performed according to standard protocols. Antibodies used were: rabbit anti-Mmp3 (1:1000, HuaBio), rabbit anti-Mmp13 (1:500, abcam, ab39012), rabbit anti-p-CREB (1:2000, Cell Signaling Technology, 87G3), rabbit anti-CREB (1:2000, Cell Signaling Technology, 48H2), mouse anti-GAPDH (1:5000; Sigma-Aldrich, G8795), rabbit anti-Col2 (Abcam, Ab34712), rabbit anti-STAT3 (1:2000; Abcam, ab68153), rabbit anti-p-STAT3 (Y705) (1:2000; Abcam, ab76315), rabbit anti -p65 (1:1000; CST, 3034), rabbit anti-p-p65 (1:1000; CST, 3033), and rabbit anti-IκBα (1:1000; Abways, CY5026).
Quantitative RT-PCR was performed to measure the relative mRNA levels. RNA samples were prepared from the chondrocytes using Trizol (Takara). cDNA was generated using the Prime Script RT reverse transcriptase kit (Yeasen, Drr036a). Primers used for amplification were shown in Supplementary Table S1, GAPDH was used as the house keeping gene.

primary chondrocytes = assay: Chondrocyte micromass differentiation, Alcian blue staining; format: cell-based, mouse; details: chondrogenic media, 7 days
Description: ATDC5 cell line was purchased from Riken BioResource Center (Tsukuba, Japan) and grown in a 1:1 mixture of DMEM/F12 medium (Corning, 10-092-CVR) supplemented with 5% fetal bovine serum (Gibco, 10099, USA) and 1% penicillin-streptomycin solution (Life Technologies). Cells were maintained at 37 °C under 5% CO2. Primary chondrocytes were obtained from knee joint cartilage of newborn mice. Knee joints were dissected from the tibia plateau and femoral condyle articular cartilage of mouse pups and digested in 0.1% collagenase type II (Sigma) overnight at 37 °C and chondrocytes were harvested by centrifugation. Primary chondrocytes were cultured at a density of 5 × 10^3 cells per ml at 37 °C with 5% CO2. DMEM/F12 medium with 10% fetal bovine serum (FBS) and 1% penicillin–streptomycin was used to culture the primary chondrocytes. […]
Micromass cultures were rinsed with PBS, fixed in PFA for 10 min, and then incubated with Alcian blue staining solution (1.0% Alcian blue in 0.1 N HCl) overnight at 4 °C. […] Alcian blue-stained cultures were extracted using 6 M guanidine hydrochloride and absorbance was measured at 620 nm.

articular cartilage = assay: Aging-induced cartilage defect (CD) mouse model; format: in vivo, mice (strain C57/BL/6); details: 19-month-old mice, 30 mg/kg daily by gavage for 3 months
Description: WT male mice (strain C57/BL/6) were raised under identical conditions until 19 months. The vehicle, Celecoxib, and HL-43 were administered to mice at 30 mg/kg daily by gavage from 19 to 22 month, n = 9 for vehicle and HL-43-treated groups, n = 6 for Celecoxib treated group.
Knee joints of mice were fixed for 24 h in 4% paraformaldehyde (wt/vol), dehydrated into 100% ethanol, and decalcified for 1 week in 0.5 M EDTA pH 8.0. Paraffin-embedded tissue was sectioned (7 μm) and stained with Safranin O and Hematoxylin & Eosin (H&E) according to standard procedures. The OARSI histologic scoring of OA in the mouse was used to measure the cartilage and synovial damage of OA[71],[77]. Immunohistochemical staining for Col2a1, ColX, Sox9, p-CREB, and CREB were routinely performed and follow previous description. […] Histomorphometry and quantification were performed using ImageJ software. Quantification of Mmp13, ColX, Sox9 positive regions were quantified as the positive area/total cartilage area per field of view under ×40 objective magnification.

[2] = test system: 4 × 48-p89-Luc (Sox9 binding enhancer, Col2a1 minimal promoter) in ATDC5 cells; assay: 4 × 48-p89-Luc luciferase reporter assay; format: cell-based, mouse
Description: (§1) Six firefly luciferase reporters were used in the Luciferase assay, including CRE-Luc (PathDetect CRE cis-Reporting System; Stratagene, La Jolla CA) driven by a basic promoter (TATA box) plus four repeats of CRE; Sox9 promoter-Luc contains human SOX9 proximal promoter region (−1034 bp to +67 bp)[45]; 4 × 48-p89-Luc, mouse Col2a1 minimal promoter. AP-1-Luc, Nf-κb-Luc, STAT-Luc were obtained from Stratagene. Chondrocytes were cultured in 24-well plates and 300 ng firefly luciferase reporter constructs were transiently transfected using transfection reagent TransExellent-DNA (Cenji Biotech Inc, China) following manufacturer’s instruction, and 15 ng of the Copia-Renilla luciferase reporter was co-transfected as a normalization control. Cells were treated with the indicated reagents for 48 h after transfection. The Dual-Luciferase measurements were performed in triplicate using the Luciferase assay kit (Promega) and a LUMIstar Omega luminometer (BMG Labtech, Mornington, Australia).

AP-1-Luc in ATDC5 cells = assay: AP-1-Luc luciferase reporter assay; format: cell-based, mouse; details: 2 ng/ml IL-1β, 30 μM HL-43, 6 h
Description: as §1

[3] = test system: cAMP in primary chondrocytes; assay: cAMP assay; format: cell-based; details: primary mouse chondrocytes, 2 h
Description: The cAMP concentration of primary chondrocytes was detected by cAMP dynamic kit (Cisbio, France) following the manufacturer’s instructions. cAMP standards were diluted according to the kit instructions. Cells were treated with HL-43 for 2 h and the relative fold change of cAMP was determined by comparing with the cAMP standard curve.

C[C@H](NC(=O)c1c(-c2ccccc2)nnn1CCOc1ccc(F)cc1)c1ccc(C(=O)O)cc1 [HL-43]
EP4 and STAT3 dependent increase in MMP3/13 expression ([1]; 2 ng/ml IL-1β, 24 h): dose-dependently inhibited
Expression of catabolic factors (Mmp3, Mmp9, and Mmp13) ([1]; primary mouse chondrocytes, 1 ng/ml IL-1β, 24 h): attenuated the expression of catabolic factors (Mmp3, Mmp9, and Mmp13) in a dose-dependent manner
Expression of anabolic factors (Col2a1 and Acan) ([1]; primary mouse chondrocytes, 24 h): promoted the expression of anabolic factors
Col2a1 expression (screen of EP4 antagonists) ([1]; primary murine chondrocytes, 1 ng/ml IL-1β, 24 hr, EP4 antagonists (2 nM)): highest potency in inducing Col2a1 expression
Mmp3 expression (screen of EP4 antagonists) ([1]; primary murine chondrocytes, 1 ng/ml IL-1β, 24 hr, EP4 antagonists (30 μM)): reducing Mmp3 expression
Chondrogenesis of primary chondrocytes (Alcian blue) (primary chondrocytes): promoted the chondrogenesis of the primary chondrocytes in a dose-dependent manner
Cartilage integrity and articular cartilage thickness (articular cartilage): notably preserved cartilage integrity and had thicker articular cartilage
4 × 48-p89-Luc reporter activity [2]: dose-dependently increased
AP-1 luciferase reporter activity (AP-1-Luc in ATDC5 cells): not AP-1 or NF-κB
cAMP production [3]: dose-dependently induced cAMP production
